Assay [1] has as its system PDGF-R. The assay can be described thus: PDGF-R autophosphorylation and expression in whole cells (2N5A, Swiss 3T3). Format: cell-based, mouse. How it is done: FIG. 5. Inhibition of PDGF-R autophosphorylation and expression in whole cells by Cpd 1. A): 2N5A cells (NIH3T3 transformed by the COL1A1/PDGFB rearrangement generating autocrine stimulation of PDGF-R) were treated with Cpd 1 at the indicated concentrations, for 72 h. Cell extracts were immunoprecipitated with anti-PDGF-R and subjected to Western blotting with anti-pTyr or anti-PDGF-R antibodies. B): Swiss 3T3 cells were serum starved for 24 h and then treated with Cpd1 at the indicated concentrations, for 18 h. After stimulation with 1 nM PDGF for 5 min, whole cell lysates were prepared and subjected to Western blotting with anti-pTyr or anti-PDGF-R. Protein loading by anti-actin blot is shown.
The following human medullary thyroid carcinoma (MTC) cell lines were used in this study. The TT cell line derived from a MEN2A-associated MTC characterized by expression of the RET oncogene carrying the mutation C634W. The MZ-CRC-1 cell line derived from MEN2B-associated MTC characterized by expression of the RET oncogene carrying the mutation M918T. TT cells were cultivated in Ham's F12 medium (BioWhittaker, Verviers, Belgium) supplemented with 15% fetal calf serum (FCS) (Life Technologies, Inc., Gaithersburg, Md.) whereas MZ-CRC-1 cells were grown in Dulbecco's modified Eagle's medium (DMEM) (BioWhittaker) supplemented with 10% FCS. The human papillary thyroid carcinoma cell line TPC-1 which was used as a model of Met overexpression, was routinely cultivated in DMEM with 10% FCS. N592 cells, derived from a human SCLC, were characterized by Kit activation through autocrine stimulation by the SCF ligand. N592 cells were cultured in RPMI 1640 supplemented with 10% FCS. The mouse SWISS3T3 and NIH3T3 fibroblasts were cultured in DMEM with 10% calf serum (Colorado Serum Company, Denver, Colo.). In addition, NIH3T3 cells transfected with different oncogenes were used. NIH3T3^MEN2A transfectants express the short isoform of the RET-MEN2A (C634R) oncogene; NIH3T3^KITΔ559 cells express KIT carrying the activating mutation Δ559 found in GISTs; NIH3T3^FGFR3(Y373C) express the FGF-R3 gene carrying the activating mutation Y373C found in a human multiple myeloma cell line. 2N5A cells are NIH3T3 cells-transformed by the COL1A1/PDGFB rearrangement generating autocrine stimulation of PDGF-R. All NIH3T3 transfectants were maintained in DMEM plus 5% calf serum in a 10% CO2 atmosphere.
For whole-cell extract preparation, cells were lysed in sodium dodecyl sulfate (SDS) sample buffer (62.5 mM Tris-HCl (pH 6.8), 2% SDS) with 1 mM PMSF, 10 μg/ml pepstatin, 12.5 μg/ml leupeptin, 100 KIU aprotinin, 1 mM sodium orthovanadate, 1 mM sodium molybdate. Protein concentration was determined in appropriately diluted aliquots by the bicinchionic acid (BCA) method (Pierce, Rockford, Ill.), then samples were adjusted to a final concentration of 10% glycerol, 5% β-mercaptoethanol, 0.001% bromophenol blue.
For immunoprecipitation experiments, cells were treated with Cpd1 or solvent for the indicated times. Cell monolayers were rinsed twice with cold phosphate-buffered saline plus 0.1 mM sodium orthovanadate and then left for 20 min on ice in lysis buffer (50 mM HEPES pH7.6, 150 mM NaCl, 10% glycerol, 1% Triton X-100, 1.5 mM MgCl2, 1 mM EGTA, 100 mM NaF, 10 mM sodium pyrophosphate, 10 μg/ml antipain, 20 μg/ml chymostatin, 10 μg/ml E64, 1 mg/ml pefabloc SC). […] Protein concentration was determined by the BCA reagent (Pierce). […]

The test system of assay [2] is NIH3T3 cells transformed with the RET/PTC1 oncogene. As to conditions: cited from earlier work.
The target of assay [3] is T1, Ret/MEN2B(M918T) (Homo sapiens, UniProt P07949, M918T).
T1 construct: endogenous in cells; host or cells: MZ-CRC-1 (human medullary thyroid carcinoma)
T1 sequence (P07949 29-1114 M918T): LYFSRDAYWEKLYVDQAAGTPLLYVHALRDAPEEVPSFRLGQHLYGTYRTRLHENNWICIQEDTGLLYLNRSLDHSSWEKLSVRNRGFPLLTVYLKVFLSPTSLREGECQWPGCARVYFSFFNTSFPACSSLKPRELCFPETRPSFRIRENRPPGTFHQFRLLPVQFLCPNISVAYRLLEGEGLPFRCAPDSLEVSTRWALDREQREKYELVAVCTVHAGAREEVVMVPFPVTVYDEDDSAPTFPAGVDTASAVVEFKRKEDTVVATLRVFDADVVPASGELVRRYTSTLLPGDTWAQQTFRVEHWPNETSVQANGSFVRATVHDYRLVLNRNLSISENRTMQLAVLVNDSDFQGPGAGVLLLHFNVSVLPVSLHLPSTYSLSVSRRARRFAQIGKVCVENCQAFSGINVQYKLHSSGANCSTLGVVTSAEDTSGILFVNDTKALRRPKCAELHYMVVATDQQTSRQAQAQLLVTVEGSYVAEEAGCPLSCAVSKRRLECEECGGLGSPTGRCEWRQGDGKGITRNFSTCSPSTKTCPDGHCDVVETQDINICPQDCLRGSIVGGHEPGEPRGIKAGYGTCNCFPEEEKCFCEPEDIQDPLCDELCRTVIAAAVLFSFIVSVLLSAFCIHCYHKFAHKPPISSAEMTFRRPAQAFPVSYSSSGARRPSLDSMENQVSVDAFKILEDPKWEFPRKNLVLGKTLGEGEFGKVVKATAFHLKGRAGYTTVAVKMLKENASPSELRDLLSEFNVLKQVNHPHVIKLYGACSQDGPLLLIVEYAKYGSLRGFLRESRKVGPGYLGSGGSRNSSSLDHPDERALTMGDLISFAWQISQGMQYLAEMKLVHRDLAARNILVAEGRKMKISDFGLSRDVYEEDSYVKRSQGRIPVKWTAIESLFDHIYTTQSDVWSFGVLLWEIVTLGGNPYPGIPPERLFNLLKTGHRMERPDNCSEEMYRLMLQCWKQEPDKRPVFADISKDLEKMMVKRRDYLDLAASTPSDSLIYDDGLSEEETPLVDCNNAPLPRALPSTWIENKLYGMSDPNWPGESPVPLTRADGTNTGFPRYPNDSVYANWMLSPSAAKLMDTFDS
The assay can be described thus: Ret autophosphorylation and expression in MZ-CRC-1 cells (Western blotting). Conditions: 24 h. It counts as cell-based. How it is done:
FIG. 2. Effects of Cpd1 on human MTC cell lines harboring MEN2-associated RET mutants. A) Inhibition of Ret autophosphorylation. TT and MZ-CRC-1 cells, expressing respectively RET/MEN2A(C634W) and RET/MEN2B(M918T), were treated with the indicated concentrations of Cpd1, for 24 h. Control cells (C) received the solvent. Whole cell extracts were processed for Western blotting and probed with anti-pTyr and anti-Ret antibodies. […] B) Antiproliferative effect. TT and MZ-CRC-1 cells were treated with increasing concentrations of Cpd 1 for 7 days and then counted with a Coulter Counter.
The following human medullary thyroid carcinoma (MTC) cell lines were used in this study. The TT cell line derived from a MEN2A-associated MTC characterized by expression of the RET oncogene carrying the mutation C634W. […]
For whole-cell extract preparation, cells were lysed in sodium dodecyl sulfate (SDS) sample buffer (62.5 mM Tris-HCl (pH 6.8), 2% SDS) with 1 mM PMSF, 10 μg/ml pepstatin, 12.5 μg/ml leupeptin, 100 KIU aprotinin, 1 mM sodium orthovanadate, 1 mM sodium molybdate. Protein concentration was determined in appropriately diluted aliquots by the bicinchionic acid (BCA) method (Pierce, Rockford, Ill.), then samples were adjusted to a final concentration of 10% glycerol, 5% β-mercaptoethanol, 0.001% bromophenol blue. […]
(In general: Immunoblotting shows a protein as a band on a membrane.)

Assay [4] addresses T2, FGF-R3 mutant Y373C (Homo sapiens, UniProt P22607, Y373C).
T2 construct: expressed in transfected cells; host or cells: NIH3T3 (mouse fibroblasts)
The assay can be described thus: FGF-R3 (Y373C) autophosphorylation and expression in NIH3T3 transfectants. Format: cell-based. As to conditions: 72 h. As to the method:
FIG. 6. Inhibition of autophosphorylation and expression of FGF-R1 and FGF-R3 receptors in whole cells by Cpd1. A): Swiss3T3 cells were serum starved for 24 h and then treated with Cpd1 at the indicated concentrations, for 18 h. After stimulation with 100 ng/ml FGF for 5 min, whole cell lysates were prepared and subjected to Western blotting with anti-pTyr or anti-FGF-R1. Protein loading by anti-actin blot is shown. B): NIH3T3 transformed by the FGF-R3 mutant Y373C were treated with the indicated concentrations, for 72 h. Cell extracts were immunoprecipitated with anti-FGF-R3 and then subjected to Western blotting with anti p-Tyr or anti-FGF-R3.
The following human medullary thyroid carcinoma (MTC) cell lines were used in this study. The TT cell line derived from a MEN2A-associated MTC characterized by expression of the RET oncogene carrying the mutation C634W. The MZ-CRC-1 cell line derived from MEN2B-associated MTC characterized by expression of the RET oncogene carrying the mutation M918T. […]
For immunoprecipitation experiments, cells were treated with Cpd1 or solvent for the indicated times. […] Protein concentration was determined by the BCA reagent (Pierce). […]

T2 sequence (P22607 23-806 Y373C): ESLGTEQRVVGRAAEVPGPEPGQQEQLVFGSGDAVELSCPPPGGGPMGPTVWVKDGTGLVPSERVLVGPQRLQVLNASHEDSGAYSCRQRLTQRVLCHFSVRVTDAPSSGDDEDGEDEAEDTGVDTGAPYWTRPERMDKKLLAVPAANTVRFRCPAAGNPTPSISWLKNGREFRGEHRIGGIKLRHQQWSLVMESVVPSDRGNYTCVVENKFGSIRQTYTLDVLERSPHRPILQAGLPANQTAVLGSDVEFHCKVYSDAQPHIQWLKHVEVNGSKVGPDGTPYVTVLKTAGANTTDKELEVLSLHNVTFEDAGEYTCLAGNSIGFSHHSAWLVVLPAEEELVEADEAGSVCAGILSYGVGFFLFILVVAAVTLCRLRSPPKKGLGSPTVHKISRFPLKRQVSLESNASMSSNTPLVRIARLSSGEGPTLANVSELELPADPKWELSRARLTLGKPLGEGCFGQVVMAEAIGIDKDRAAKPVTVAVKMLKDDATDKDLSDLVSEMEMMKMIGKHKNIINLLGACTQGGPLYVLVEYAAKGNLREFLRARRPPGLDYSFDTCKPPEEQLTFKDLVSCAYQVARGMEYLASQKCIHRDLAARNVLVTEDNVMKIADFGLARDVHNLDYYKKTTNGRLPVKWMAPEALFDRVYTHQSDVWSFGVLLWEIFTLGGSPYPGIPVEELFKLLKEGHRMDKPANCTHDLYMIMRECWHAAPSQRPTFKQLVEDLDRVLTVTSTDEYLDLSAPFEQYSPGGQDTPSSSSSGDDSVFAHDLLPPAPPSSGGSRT

Consider `COc1cc2c(cc1OC)/C(=C\c1ccc(O)cc1)C(=O)N2` [Cpd 1, (E)-1,3-dihydro-5,6-dimethoxy-3-[(4-hydroxyphenyl)methylene]-2H-indol-2-one], for which the PDGF-R tyrosine phosphorylation entry in assay [1] (2N5A cells (autocrine stimulation), 72 h) is given as “dose-dependent drug-induced inhibition”; in assay [1] (Swiss 3T3 cells serum starved, 18 h, 1 nM PDGF 5 min) it was “dose-dependent drug-induced inhibition”. In addition, the PDGF-R expression result is reported as “dose-dependent drug-induced inhibition” in assay [1] (2N5A cells, 72 h) and “dose-dependent drug-induced inhibition” in assay [1] (Swiss3T3 cells, 18 h). Further, the “Concentration causing full inhibition of PDGF-R phosphorylation” value in assay [1] (whole cells (FIG. 5)) was “higher than 15 μM”. Besides, in assay [2], the “Reverting the morphologic phenotype” value was “particularly effective”. Besides, the “Tyrosine phosphorylation of Ret receptor” value in assay [3] was “dose-dependent inhibition”. The Ret receptor expression entry in assay [3] (highest concentrations) was “reduced expression”. Further, the “FGF-R3 (Y373C) expression” value in assay [4] is “dose-dependent inhibition”. Besides, the “FGF-R3 (Y373C) tyrosine phosphorylation” value in assay [4] is recorded as “dose-dependent inhibition”.
